Test results taken from patent US20230277444A1, “FORMULATIONS OF PTHrP ANALOGUES, TRANSDERMAL PATCHES THEREOF, AND USES THEREOF” (priority 2018, published 2023).

Tests used:
[1] = cynomolgus monkey, in vivo, sc
Protocol: (§1) Microneedle transdermal patches coated with various formulations of the PTHrP analogue of SEQ ID NO:1 were provided ready for use and stored refrigerated at 2-8° C. At least one hour prior to use, the transdermal patches in individual pouches were placed at room temperature. Eight female non-naïve Chinese Cynomolgus monkeys (2-4 kg at time of dosing) were included in the study. The same eight animals were used to test each formulation, with a three day washout period between tests.
(§2) Time points were calculated from the time of patch application at 5 minutes, 10 minutes, 20 minutes, 30 minutes, 1 hour, and 1.5 hours post-dose. A time point of pre-dose was taken at Day 1. 1.5 mL of whole blood was collected at each time point. K3EDTA/aprotinin was used as an anti-coagulant.
(§3) Each animal received a fixed dose of SEQ ID NO:1 without correcting for body weight. The dose administration was performed as follows:
(§4) Day 1: Test material was delivered by application of a transdermal patch. The skin was prepared 24 hours prior to each transdermal patch application as follows: a small area (5×5 cm) of the dorsal flank was prepared by close clipping of the hair with a small animal clipper. Care was taken during the clipping procedure to avoid abrasion of the skin. Both sides of the dorsal flank (thigh) were prepared for each administration to ensure a side without skin irritation was used for dose administration. Fifteen (15) minutes prior to patch application the skin was wiped with an alcohol swab. Extra care was taken to ensure the collar of the path was firmly attached to the applicator prior to application and that the transdermal patch was firmly seated on the leg for administration.
(§5) The skin was prepared 24 hours prior to each transdermal patch application as described above. Extra care was taken to ensure the collar of the path is firmly attached to the applicator prior to application and that the transdermal patch was firmly seated on the leg for administration.
(§6) A line was drawn around the site of administration to enable post dose observations. After patch removal, the transdermal patch was analyzed for residual content.
(§7) Any abnormalities were recorded by exception and reported immediately. Each dose site at pre-dose, 1 hour and 24 hours post-dose was scored using the Draize scoring system. Body weights of the animals were recorded prior to Day 1.
(§8) All blood samples were collected from a peripheral vessel. At Day 1, 1.5 mL of whole blood was collected pre-dose into a K3EDTA/aprotinin tube containing 15 μL (of 2.5 mg protein/mL/aprotinin solution) per ml of whole blood. […] Whole blood samples were collected within ±5% of the scheduled collection time, with actual collection times recorded. Samples were kept on wet ice until processed.
(§9) The whole blood samples were processed to plasma. […] Plasma samples were transferred to two approximately equal aliquots (aliquot 1 and aliquot 2). Samples were frozen at −70° C.±10° C.

[2] = in vivo; settings: female, Chinese Cynomolgus, cynomolgus monkey, sc
Protocol: as §1, §2, §3, §4, §5, §6, §7, §8, §9

With `CC[C@H](C)[C@H](NC(=O)[C@H](CO)NC(=O)[C@H](CCCCN)NC(=O)CNC(=O)[C@H](CCCCN)NC(=O)[C@H](CC(=O)O)NC(=O)[C@H](Cc1cnc[nH]1)NC(=O)[C@H](CC(C)C)NC(=O)[C@H](CC(C)C)NC(=O)[C@H](CCC(N)=O)NC(=O)[C@H](Cc1cnc[nH]1)NC(=O)[C@H](CCC(=O)O)NC(=O)[C@H](CO)NC(=O)[C@@H](NC(=O)[C@H](C)N)C(C)C)C(=O)N[C@@H](CCC(N)=O)C(=O)N[C@@H](CC(=O)O)C(=O)N[C@@H](CC(C)C)C(=O)N[C@@H](CCCNC(=N)N)C(=O)N[C@@H](CCCNC(=N)N)C(=O)N[C@@H](CCCNC(=N)N)C(=O)N[C@@H](CCC(=O)O)C(=O)N[C@@H](CC(C)C)C(=O)N[C@@H](CC(C)C)C(=O)N[C@@H](CCC(=O)O)C(=O)N[C@@H](CCCCN)C(=O)N[C@@H](CC(C)C)C(=O)N[C@@H](CC(C)C)C(=O)NC(C)(C)C(=O)N[C@@H](CCCCN)C(=O)N[C@@H](CC(C)C)C(=O)N[C@@H](Cc1cnc[nH]1)C(=O)N[C@H](C(=O)N[C@@H](C)C(N)=O)[C@@H](C)O` [Abaloparatide, [Glu^22,25, Leu^23,28,31, Aib^29, Lys^26,30]hPTHrP(1-34)NH2] the AUC [1] was 131610, the Cmax [2] was 3.34 ng/mL and the Tmax [2] was 7 min. The half-life [2] was 14 min, the level at 5 min [2] was 1.9 ng/mL and the level at 10 min [2] was 0.88 ng/mL. The level at 20 min [2] was 0.542 ng/mL, the level at 0.5 h [2] was 0.222 ng/mL and the level at 1 h [2] was 0.12 ng/mL.
